Seven compounds from US20100130581A1, “COMPOUNDS AND METHODS FOR THE TREATMENT OF PAIN” (THE UNIVERSITY OF QUEENSLAND, priority 2006, published 2010) can be followed below.

For data set [1], the system named is μ- and δ-opioid receptors. Description: Cell based assay of cAMP inhibition in forskolin treated SH-SY5Y cells. The following applies: for IC50: Efficacy SH-SY5Y cell line; for Inhibit c-AMP (%): SH-SY5Y cell line, normalised to the % of cAMP inhibition seen by native endomorphin-1. How it is done: SH-SY5Y cells endogenously expressing μ- and δ-opioid receptors were cultured (100 μl) in a 96 well-plate and incubated (usually overnight) until 80% confluent. Once cells were ready for assay, Endo-1, Endo-2 and derivatives/analogs were diluted in DMEM culture medium containing 30 μM forskolin. The diluted derivatised endomorphins or derivatised endomorphin analogs were then applied to separate wells for agonist studies and co-incubated for antagonist studies. Cells were incubated with derivatised endomorphins or derivatised endomorphin analogs at 37° C. for 30 minutes, medium was aspirated and cells were lysed using lysis buffer from a cAMP Biotrak EIA kit (Amersham, Buckinghamshire, UK). An anti-cAMP antibody was added to the lysate, and the mixture incubated at 4° C. for 2 hours followed by the addition of a cAMP peroxidase conjugate, and incubated at 4° C. for a further hour. A 3,3′5,5′-tetramethylbenzidine (TMB) substrate provided by the Biotrak EIA kit was then incubated with cell lysate for 1 hour and finally 1 […] was added to facilitate a colour change, which is proportional to the amount of cAMP captured. A cAMP standard curve from 0 to 3200 fmol was also generated concurrently. Plates were then read by a plate reader at 450 nm and compared back to the cAMP standard curve. All data are compared to the maximum cAMP response to forskolin and are represented as the mean+/−standard error of three experiments performed in triplicate. All data are plotted using PRISM program (GraphPad, San Diego, Calif.) (see FIGS. 2a and 2b).

In another data set the target is T1, μ-opioid receptor (Homo sapiens, UniProt P35372).
T1 construct: SH-SY5Y cells endogenously expressing μ- and δ-opioid receptors; endogenous in cells; host or cells: SH-SY5Y cells
Nature of the data set: Whole cell-based binding assay, displacement of 3H-DAMGO. How it is done: Media was removed and cells were washed with PBS before pre-incubation in 300 μL of binding buffer. Binding studies were performed with 100 μL of appropriate concentrations of ^3H-labeled DAMGO (a selective μ-opioid receptor agonist) and 100 μL of competitor or blank in binding buffer at 37° C. for 60 min. Competition binding experiments were performed using […] of ^3H-labelled DAMGO in the absence or presence of increasing concentrations of unlabeled derivatised endomorphins or derivatised endomorphin analogs. A 1 μM excess of unlabelled DAMGO was used to determine non-specific binding. Following incubation, the cells were washed with PBS and recovered from culture plates using 500 μL of […] before transfer to scintillation vials. Liquid scintillation cocktail (Ultima Gold, Packard, Meriden, USA) was added to these vials for counting in a liquid scintillation analyser. Data are expressed as the mean±SEM of % specific binding of triplicate determinations performed on at least three independent plates of cells. Data were plotted using the one-site competition functions of the PRISM program (Graphpad Inc., San Diego, USA) (see FIGS. 1a, 1b and 7).
Background: Displacement assays read how much labelled ligand stays bound in the presence of the test substance.

A short description of another data set: Plasma stability assay. In kind it is in vitro ADME. Particulars: male, human, plasma at 37° C. The method, then: To measure the enzymatic stability of endomorphin-1 analogs in plasma, blood was taken from a healthy volunteer and the blood was centrifuged at 1700 rpm for 30 minutes to remove blood cells. The plasma was placed into a water bath heated at 37° C. and Endomorphin-1 and analog was added to give final concentrations of 0.7 mg/mL. Samples were incubated for varying time periods between 0 and 180 minutes. 50 μL of sample was taken at each time-point and 75 μL of acetonitrile was added to quench any enzyme activity. The samples were then placed on ice and upon completion of the assay, all samples were centrifuged at 9000 rpm for 3 minutes to remove all precipitated plasma proteins. The amount of intact peptide remaining in the supernatent of each sample was determined using RP HPLC by measuring the area under the curve of the peak at the appropriate retention time compared to a standard curve of concentration for each peptide (see FIG. 8).

A further data set has as its system CCI-rats. Nature of the data set: Pain relief in CCI-rat model of neuropathic pain (von Frey paw withdrawal thresholds). In kind it is in vivo.
In data set [2] the test system is gastrointestinal motility. Description: Gut motility study (charcoal meal). In kind it is in vivo, rat. The following applies: rats. How it is done: Each dose of Compound 8, morphine and vehicle was administered to naïve rats as a 100 μL i.v. bolus injection via an indwelling cannula surgically implanted into the jugular vein at least 12 h prior to dose administration. Rats were anaesthetised with 3% isoflurane: 97% oxygen inhalational anaesthetic. A 1 cm incision was made on the right ventral side of the trachea. Using blunt dissection, the jugular vein was exposed and a small incision made to allow cannula insertion. The cannula was inserted into the vein, its integrity assessed, and tied into place using sterile sutures. The wound was sutured, the cannula was exteriorised at the back of the neck and secured using a metal spring. The rats were kept warm during surgical recovery. Animals were housed singly for the remainder of the experimentation period. Rats were inspected regularly from the time of surgery with respect to exploring behaviour, body weight and water intake. No adverse signs from the surgery were observed.
Charcoal meal was prepared by mixing 10% charcoal and 5% arabic gum in distilled, deionised water. Each rat received a single oral gavage of charcoal meal. Thirty minutes later the animal was euthanised using CO2 asphyxiation and the intestine was removed and measured. The distance from the pyloric sphincter to the caudal end of the charcoal and the total distance of the small intestine to the distal part of the ileum were measured in cm. Gastrointestinal motility was determined as the distance traveled by the charcoal relative to the total length of the small intestine, expressed as a percentage.
Each rat received a single bolus i.v. dose of Compound 8, morphine or vehicle. Animals received either vehicle (n=5), morphine at 1 mg/kg (n=3), 2 mg/kg (n=5), 10 mg/kg (n=5) and 30 mg/kg (n=2) or Compound 8 at 0.3 mg/kg (n=3), 1 mg/kg (n=5), 3 mg/kg (n=4), and 10 mg/kg (n=3). Thirty minutes after i.v. dosing an oral gavage of charcoal meal was administered under light (50%:50% CO2:O2) anaesthesia. Thirty minutes later the animal was euthanised via CO2 asphyxiation and the intestine was removed and the distance moved by the charcoal meal was measured.
The intestine was measured for distance of charcoal meal traveled in the small intestine and total length of small intestine. The % distance of charcoal transit was assessed relative to the total length of the small intestine. % inhibition of gastrointestinal motility by morphine or Compound 8 was calculated by the following equation: [(average % charcoal transit in vehicle rats)−(% distance charcoal transit)×100]/(average % charcoal transit in vehicle rats).

Data set [3] deals with homogenate of Caco-2 cells. Nature of the data set: Enzymatic stability study in homogenized Caco-2 cells. In kind it is in vitro ADME. The following applies: Caco-2 cell line; graded by number of ♦ (up to 5), key not given. How it is done:
Approximately 1×10^5 cells/mL concentration of cells were seeded onto the 96 well plate. […] The media was changed every other day. 21-28 days old cells were used for the experiments. the media was removed from the wells and each well washed with 100 μL 0.2% EDTA solution followed by washing three times with Hanks' balanced salt solution (HBSS) containing 25 mM Hepes (pH 7.4). Finally, 100 μL of this buffer was placed in each well and the plate cooled in ice. The monolayer of cells in each well was then disrupted by 2×1 second pulses with a Sonics Vibracell ultrasonic processor set at an amplitude of 30. The cell debris was then removed by centrifugation of the plate at 2000 rpm for 5 min. 80 μL cell homogenate supernatant of each well was then transferred to a clean 96 well plate, and 20 μL of HBSS-Hepes was added. Three of the wells' contents were set aside and assayed for total protein content using the Lowry assay. The compounds to be tested were dissolved in HBSS-Hepes buffer to a concentration of 200 μM.
This assay was performed at 37° C. […] The stability assay on each compound was conducted in triplicate and the concentrations averaged for each time point.

Entries after “also recorded” stand apart in the source; their conditions may differ. Where a SMILES comes first, the peptide text is derived from it. [ ]: non-standard residue; d: D form. ξ: configuration not given here. Dmt = Cc1cc(O)cc(C)c1C[C@H](N)C(=O)O; ξGly(decyl) = CCCCCCCCCCC(N)C(=O)O; ξGly(octyl) = CCCCCCCCC(N)C(=O)O; ξAoc(2) = CCCCCCC(N)C(=O)O

T1 sequence (P35372 whole entry): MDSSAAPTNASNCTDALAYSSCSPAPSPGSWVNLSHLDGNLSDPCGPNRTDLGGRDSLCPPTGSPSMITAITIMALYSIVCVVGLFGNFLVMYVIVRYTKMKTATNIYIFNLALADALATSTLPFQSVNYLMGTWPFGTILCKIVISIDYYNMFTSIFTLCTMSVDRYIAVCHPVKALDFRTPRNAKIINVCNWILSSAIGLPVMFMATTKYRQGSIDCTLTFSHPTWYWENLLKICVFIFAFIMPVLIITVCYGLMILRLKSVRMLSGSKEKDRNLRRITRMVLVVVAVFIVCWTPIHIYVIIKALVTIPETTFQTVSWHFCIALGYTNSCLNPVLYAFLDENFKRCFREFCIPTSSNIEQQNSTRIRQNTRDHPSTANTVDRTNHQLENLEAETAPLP

What is called IC50 is the midpoint of a concentration-inhibition curve. For orientation: Ki means a measure of affinity in units of concentration, obtained from inhibition or displacement. For orientation: half-life means the time needed for the level to fall by half in the phase considered. In the case of `CCCCCCC(N)C(=O)N[C@@H](Cc1c(C)cc(O)cc1C)C(=O)N1CCC[C@H]1C(=O)N[C@@H](Cc1c[nH]c2ccccc12)C(=O)N[C@@H](Cc1ccccc1)C(N)=O` (single isomer, unassigned) [Compound 7], in data set [1], half-maximal inhibition (IC50) was put at 0.189 nM and the “Inhibit c-AMP (%)” value is reported as 153%. On μ-opioid receptor, the affinity corresponds to a Ki of 0.071 nM. The half-life at 0.7 mg/mL in the data set “Plasma stability assay” is 4.55 min.
Turning to `CCCCCCCCCCC(N)C(=O)N[C@@H](Cc1ccc(O)cc1)C(=O)N1CCC[C@H]1C(=O)N[C@@H](Cc1c[nH]c2ccccc12)C(=O)N[C@@H](Cc1ccccc1)C(N)=O` (some centres unmarked) [Compound 2] (H-[ξGly(decyl)]YPWF-NH2), the “Inhibit c-AMP (%)” value in data set [1] is 89%. On μ-opioid receptor, this compound displayed a Ki of 35.5 nM.
In data set [1], `CCCCCCCCC(N)C(=O)N[C@@H](Cc1c(C)cc(O)cc1C)C(=O)N1CCC[C@H]1C(=O)N[C@@H](Cc1c[nH]c2ccccc12)C(=O)N[C@@H](Cc1ccccc1)C(N)=O` (some centres unmarked) [Compound 8] (H-[ξGly(octyl)][Dmt]PWF-NH2) yielded an IC50 of 0.0634 nM. At μ-opioid receptor, this compound showed a Ki of 0.47 nM. In addition, the “antinociception / baseline PWT responses, in words” value in the data set with CCI-rats (contralateral hindpaw, CCI-rats, i.v., Endo1 1 mg/kg, Compound 8 0.3-3 mg/kg) is on record as “did not significantly alter baseline PWT responses; also recorded: no significant antinociception in the contralateral hindpaw”. For the same compound, in the data set on CCI-rats (contralateral hindpaw, drug-naïve CCI-rats, i.v., Endo1 1.6 μmol/kg, Compound 8 1.2 μmol/kg), the “baseline PWT responses, in words” value was “did not significantly alter baseline PWT responses”. Besides, the “anti-nociceptive effect, in words” value with CCI-rats (contralateral hindpaw, s.c., 0.3-3 mg/kg, vs vehicle) is on record as “did not produce a significant, dose-dependent anti-nociceptive effect; also recorded: did not produce dose-dependent anti-nociceptive pain relief”. The “extent and duration of anti-allodynia compared with Endo1” value in the data set with CCI-rats (drug-naïve CCI-rats, ipsilateral hindpaw, i.v.) is “significantly (p<0.05) larger extent and duration of anti-allodynia”. In addition, the “anti-allodynic effect, in words” value is “significant, dose-dependent anti-allodynic effect; also recorded: dose-dependent relief of tactile allodynia” with CCI-rats (ipsilateral hindpaw, CCI-rats, single bolus i.v. doses, vs vehicle) and “significant, dose-dependent anti-allodynic effect; also recorded: dose-dependent relief of tactile allodynia” with CCI-rats (ipsilateral hindpaw, CCI-rats, single bolus s.c. doses 0.1-10 mg/kg, vs vehicle). For the same compound, the “dose-normalised area under the anti-allodynic response versus time curve (AUC), in words” value with CCI-rats (ipsilateral hindpaw, i.v., CCI-rats, over 3 h) is “significantly greater (p<0.05) than that of both Endo1 and vehicle”. For the same compound, the “time of mean peak anti-allodynic response” value was around 0.5 h in the data set with CCI-rats (ipsilateral hindpaw, i.v., highest dose tested); 0.5 to 1 h in the data set with CCI-rats (ipsilateral hindpaw, i.v., over doses tested); 0.5 to 1 h with CCI-rats (ipsilateral hindpaw, s.c., 0.1-10 mg/kg); around 0.5 h in the data set with CCI-rats (ipsilateral hindpaw, s.c., highest dose tested). The “mean duration of action” value with CCI-rats (ipsilateral hindpaw, i.v., highest dose tested (3 mg/kg)) was above 3 h; with CCI-rats (ipsilateral hindpaw, i.v., lower doses (0.1 and 0.3 mg/kg)), 2 to 3 h. Further, the half-life at 0.7 mg/mL in “Plasma stability assay” turned out to be 41.4 min. The “% inhibition of gastrointestinal transit, compared with i.v. morphine” value in data set [2] (i.v., 10 mg/kg) is on record as “did not differ significantly (p>0.05)”. Also, the “average gradient of log dose vs. % inhibition of gastrointestinal motility curve” value in data set [2] (single bolus i.v. doses, FIG. 15) is given as “lower than the average gradient for the curve corresponding to morphine”. Further, the “inhibition of gastrointestinal motility, in words” value in data set [2] (single i.v. bolus, 0.3, 1, 3 and 10 mg/kg) was “inhibited gastrointestinal motility at all doses assessed”.
In data set [1], `CCCCCCCCCCC(N)C(=O)N[C@@H](Cc1c(C)cc(O)cc1C)C(=O)N1CCC[C@H]1C(=O)N[C@@H](Cc1c[nH]c2ccccc12)C(=O)N[C@@H](Cc1ccccc1)C(N)=O` (some centres unmarked) [Compound 9] (H-[ξGly(decyl)][Dmt]PWF-NH2) came in with an IC50 of 0.928 nM. This compound also yielded a Ki at μ-opioid receptor of 0.735 nM. This compound also registered a half-life at 0.7 mg/mL in the data set “Plasma stability assay” of 20.3 min.
In the case of `CCCCCCC(N)C=N[C@@H](Cc1ccc(O)cc1)C(=O)N1CCC[C@H]1C(=O)N[C@@H](Cc1c[nH]c2ccccc12)C(=O)N[C@@H](Cc1ccccc1)C(N)=O` (some centres unmarked) [Compound 10], the Ki at μ-opioid receptor was determined as 42.4 nM.
With `CCCCCCC(NC(=O)[C@H](Cc1ccccc1)NC(=O)[C@H](Cc1c[nH]c2ccccc12)NC(=O)[C@@H]1CCCN1C(=O)[C@@H](N)Cc1ccc(O)cc1)C(N)=O` (some centres unmarked) [Compound 19] (H-YPWF[ξAoc(2)]-NH2), the “Enzymatic stability 2 h” value in data set [3] was “♦”.
As to `CN1CC[C@]23c4c5ccc(O)c4O[C@H]2[C@@H](O)C=C[C@H]3[C@H]1C5` [morphine, reference compound], the “inhibition of gastrointestinal motility, in words” value in data set [2] (single i.v. bolus, 1 and 2 mg/kg) was “did not significantly (p>0.05) inhibit gastrointestinal motility”. Further, the “inhibition of gastrointestinal transit, in words” value in data set [2] (single i.v. bolus, 10 and 30 mg/kg) is “significant (p<0.05) inhibition of gastrointestinal transit”.
